Article PMC11836358 (Nature Communications, 2025)
Read-outs that look alike come from different tables or passages of the source.

Assays:
BmrA [1] = target: T1, BmrA (Bacillus subtilis, UniProt O06967, E504A); assay: biochemical
BmrA [2] = target: T1, BmrA; assay: biochemical; remark: listed apart in the source
[3] = target: the molecule itself; assay: cryo-EM structure; purified BmrA E504A at 25 µM in 20 mM HEPES-NaOH pH 7.5, 100 mM NaCl, DDM/sodium cholate; 0, 25, 70, 100 µM or 5 mM ATP-Mg2+, with or without 100 µM R6G, or with Hœchst33342; inward-facing and outward-facing dimers reconstructed

Molecule	Kd (BmrA [2]) [µM]	further results
Nc1ncnc2c1ncn2[C@@H]1O[C@H](COP(=O)(O)OP(=O)(O)OP(=O)(O)O)[C@@H](O)[C@H]1O [ATP]		Kd (BmrA [1]): 154 ± 49 µM
COc1cccc2c1C(=O)c1c(O)c3c(c(O)c1C2=O)C[C@@](O)(C(=O)CO)C[C@@H]3O[C@H]1C[C@H](N)[C@H](O)[C@H](C)O1 [Doxorubicin]	7.3 ± 2.2	
CCOc1ccc(-c2nc3cc(-c4nc5cc(N6CCN(C)CC6)ccc5[nH]4)ccc3[nH]2)cc1 [Hœchst33342]	9.6 ± 1.3	
BmrA E504A mutant (Bacillus subtilis multidrug ABC transporter) (natural protein, BmrA, efflux pump of Bacillus subtilis, type-IV MDR ABC transporter; each monomer has 1 TMD and 1 NBD; Homodimer; the plasmid pET15b encodes the mutant fused to a 6-histidine tag at the N-terminal; also called E504A^apo; E504A^R6G; source: E. coli C43(DE3)∆AcrB, pET15b; membranes solubilised in Triton X100, purified (two Ni-NTA steps, Superdex 200) in DDM/sodium cholate) MPTKKQKSKSKLKPFFALVRRTNPSYGKLAFALALSVVTTLVSLLIPLLTKQLVDGFSMSNLSGTQIGLIALVFFVQAGLSAYATYALNYNGQKIISGLRELLWKKLIKLPVSYFDTNASGETVSRVTNDTMVVKELITTHISGFITGIISVIGSLTILFIMNWKLTLLVLVVVPLAALILVPIGRKMFSISRETQDETARFTGLLNQILPEIRLVKASNAEDVEYGRGKMGISSLFKLGVREAKVQSLVGPLISLVLMAALVAVIGYGGMQVSSGELTAGALVAFILYLFQIIMPMGQITTFFTQLQKSIGATERMIEILAEEEEDTVTGKQIENAHLPIQLDRVSFGYKPDQLILKEVSAVIEAGKVTAIVGPSGGGKTTLFKLLERFYSPTAGTIRLGDEPVDTYSLESWREHIGYVSQESPLMSGTIRENICYGLERDVTDAEIEKAAEMAYALNFIKELPNQFDTEVGERGIMLSGGQRQRIAIARALLRNPSILMLDAATSSLDSQSEKSVQQALEVLMEGRTTIVIAHRLSTVVDADQLLFVEKGEITGRGTHHELMASHGLYRDFAEQQLKMNADLENKAG		binding result [3]: binds
